Experimental data: paper PMC6143625, “A high throughput screen for next-generation leads targeting malaria parasite transmission” (Nature Communications, 2018)
“And” between values parts separate entries of the source, which are not always exact repeats. Equal entries are not always repeated.

Assays:
[1] = tested on: P. falciparum male gametogenesis; assay: Phenotypic immunofluorescence assay of male gamete formation; assay type: cell-based, Plasmodium falciparum; conditions: 10 µM, 24 h treatment, 0–20 min post induction
Experimental: In vitro evolution followed by whole-genome analysis is the primary approach currently used for understanding how compounds act in malaria parasites. As it is not currently feasible to generate resistant mutants to compounds that are only active in the gametocyte stage (resistance generation requires extensive rounds of replication in the presence of compound), phenotypic immunofluorescence assays were performed to evaluate compound activity on male gamete formation. Gametocytes treated with 10 µM of each compound were sampled at 0, 2, 3, 4, 6, 8, 10, and 20 min post induction of gamete formation before imaging (Fig. 4). Individual male cells were then extracted from the images and analysed for shape and haploid chromosome number/DNA content to quantitatively measure the progression of DNA replication (n = 198–668 cells) (Fig. 5a).
Day 14 gametocyte culture was divided into 4 ml aliquots and treated either with DMSO or 10 µM test compound. After 24 h, 500 µl aliquots of the non-activated gametocytes were fixed in an equal volume of 8% paraformaldehyde (PFA) warmed to 37 °C to generate Time = 0 min (t = 0) samples. Gamete formation was induced in the remainder of the cultures by cooling to RT and addition of 500 µl ookinete medium. At t = 2, 3, 4, 6, 8, 10, and 20 min 500 µl of culture was removed and immediately fixed in equal volume of 8% PFA at room temperature for 15 min. Fixed cells were diluted in PBS and allowed to settle onto poly-L-lysine-coated glass coverslips overnight. The next day, cells were washed in PBS, permeabilized in 0.1% Triton X-100 and blocked in PBS + 10% FBS. Cells were stained with mouse anti-alpha tubulin (Sigma) clone DM1A (1:500 dilution) and rabbit anti-Glycophorin A (Abcam) clone EPR8200 (1:1000 dilution). Staining was visualised with anti-mouse […] and anti-rabbit Alexa555 (Thermo-Fisher) both at 1:1000 dilution. Coverslips were mounted onto glass slides with VectaShield mountant (Vector Laboratories) containing 4′,6-diamidino-2-phenylindole (DAPI) to visualise cellular DNA. Cells were imaged at random (n = 195–668 cells per test compound) using a Nikon Ti-E widefield microscope using a × 100 objective lens and taken in 0.2 µm slice z-stack images to capture the whole cell. All images were converted to maximum intensity projections in NIS Elements v4.20 and all further image processing performed in ICY. Individual cells were manually selected and automatically extracted from each image using the Active Contours plugin gated to the tubulin staining. Using the ROI Statistics plugin, the following parameters were calculated for each cell and exported to MS Excel: Cell area, Cell roundness, Cell elongation, and Average intensity of blue channel (DNA). […] Outlier cells from the curve were all exflagellating (Supplementary Fig. 6). These two parameters were combined as a ratio of roundness:elongation to produce the parameter Cell shape. Cellular DNA content was estimated by multiplying the average pixel intensity of the blue channel (after subtracting the background intensity of an empty area in the same parent image) with the total cell area.

NF54 stage V gametocytes = assay: Gametocytocidal MitoTracker-based viability assay (SaLSSA); assay type: cell-based, Plasmodium falciparum NF54; conditions: for IC50: Plasmodium falciparum, NF54, 72h incubation, read-out: Pf Stage V GCT (mitotracker assay) IC50
Experimental: As another independent assessment of the metabolic viability of compound-treated stage V gametocytes, the Saponin-lysis Sexual Stage Assay (SaLSSA) was employed. A volume of 100 nl of test compounds were pre-dispensed in 384-well plates (781091-2B, Greiner) in 12-point dose response (25 µM to 1.41 × 10^−4 µM), prior to the addition of synchronous NF54 stage V gametocytes (40 µl at 0.70% gametocytaemia). Assay plates were then incubated for 72 h in a low oxygen environment (92% N2, 5% CO2, 3%O2) before a 10 µl MitoTracker Red CMXRos (2.5 µM) and saponin solution (0.13%w/v) was added. Plates were returned to 37 °C for 1 h to allow for complete red blood cell lysis, after which viable gametocytes were detected using an Operetta high-content imaging system. Analysis was performed using the Harmony package software, with potency calculated relative to puromycin (positive control) and DMSO (negative control).

[2] = tested on: P. falciparum female gametocytes; assay: Pf DGFA wash-out format, female readout; assay type: cell-based; conditions: Plasmodium falciparum; 48h preincubation/wash-out
HepG2 cells = assay: HepG2 toxicity (CellTiter-Glo, parallel to liver stage assay); assay type: cell-based, human
Experimental: Compound inhibition of P. berghei sporozoite liver infection was assessed in a high-throughput luciferase assay. 1536-well plates (789173-F, Greiner Bio-One) were pre-seeded with 5 µl HepG2-A16-CD81^EGFP cells grown in DMEM (11965–092, Invitrogen) containing 10% FBS (35–011-CV, Corning) and 1× Pen Strep Glutamine (10378–016, Invitrogen). Then, 50 nl of compound in DMSO was dispensed in 12-point serial dilution dose-response format (50 µM to 2.82 × 10^−4 µM), and incubated overnight.A. stephensi mosquitoes infected with P. berghei-ANKA-GFP-Luc-SMCON (Pb-Luc)[41] sporozoites bearing the antifolate-resistance-conferring Toxoplasma gondii dihydrofolate reductase-thymidylate synthase selectable marker, pyR2. After dissection, ~1000 sporozoites in 5 µl screening media (DMEM, 11965–092, Invitrogen; 5% FBS, 35–011-CV, Corning; 5x Pen Strep Glutamine, 10378–016, Invitrogen) were added per well and incubated for 48 h (37 °C, 5% CO2). Bioluminescence was measured using an EnVision microplate reader (Perkin Elmer), following the addition of 2 µl per well of Bright-Glo™ (Promega). Compound toxicity against HepG2 cells was determined in parallel by measuring cellular ATP levels reported by luciferase activity. Methods were similar to the P. berghei liver stage assay, except for the addition of CellTiter-Glo® (Promega) as a detection reagent. DMSO (0.5%) was used as a negative control in both assays, with Atovaquone (5 µM) and Puromycin (10 µM) acting as positive controls in the P. berghei and toxicity assays, respectively.

[3] = tested on: P. falciparum male gametocytes; assay: Pf DGFA wash-out format, male readout; assay type: cell-based; conditions: Plasmodium falciparum; 48h preincubation/wash-out
[4] = tested on: P. berghei 507 strain in mice, transmission to Anopheles stephensi; assay: P. berghei mosquito (direct) feeding assay in infected mice; assay type: in vivo, Plasmodium berghei; conditions: for Infection Prevalence (%) / Mean oocysts per mosquito: per mouse
Experimental: Six- to eight-week female T0 mice were treated with phenylhydrazine 3 days prior to intraperitoneal (IP) inoculation with 100 µl of mouse blood infected with the constitutively GFP expressing P. berghei 507 strain[39]. On day 3 after infection, thin blood smears were taken from tail blood to quantify parasitaemia and gametocytaemia. […] […] Twenty-four hours after feeding, unfed mosquitoes were removed and remaining mosquitoes maintained for a further 9 days on sucrose solution. Mosquito midguts were then dissected, imaged and oocysts quantified by semi-automated computer analysis.

[5] = Dose 30min prior, listed as DDD881

Row | SMILES | IC50 (NF54 stage V gametocytes) | IC50 [2] | Human HepG2 assay TOX50 (HepG2 cells; human, 48 h) | IC50 [3] | further results
1 | O=C(CCl)Nc1ccc(Br)cc1 [BPCA, N-(4-bromophenyl)-2-chloroacetamide] | – | – | – | – | phenotype of male gametogenesis (IFA) [1]: rounded up after induction but most cells did not replicate their DNA and none exflagellated
2 | CC(=O)c1c(C)nn(CC(=O)Nc2ccc(Br)cc2)c1C [DDD01027599] | 5.55 µM | 3.11 µM | 25.00 µM | 0.97 µM | –
3 | O=S(=O)(NCC1(O)CCOc2ccccc21)c1ccccc1F (centres unmarked) [DDD01028073] | > 25 µM | > 12.5 µM | >50.0 µM | > 12.5 µM | –
4 | Cc1ccc(S(=O)(=O)NCC2(O)CCOc3ccccc32)s1 (centres unmarked) [DDD01028074] | > 25 µM | > 12.5 µM | >50.0 µM | > 12.5 µM | –
5 | O=S(=O)(NCC1(O)CCOc2ccccc21)c1ccc(Cl)s1 (centres unmarked) [DDD01028075] | > 25 µM | > 12.5 µM | >50.0 µM | > 12.5 µM | –
6 | O=S(=O)(NCC1(O)CCOc2ccccc21)c1ccccc1Br (centres unmarked) [DDD01028076] | > 25 µM | > 12.5 µM | >50.0 µM | > 12.5 µM | –
7 | COc1cccc(-n2ccc3nc(N4CCCC4)ncc3c2=O)c1 [DDD01034957] | > 25 µM | – | >50.0 µM | – | –
8 | O=S(=O)(NCC1(O)CCOc2ccccc21)c1cccs1 (centres unmarked) [DDD01035879] | > 25 µM | > 12.5 µM | >50.0 µM | > 12.5 µM | –
9 | O=S(=O)(NCC1(O)CCOc2ccccc21)c1ccc(Br)s1 (centres unmarked) [DDD01035881] | > 25 µM | > 12.5 µM | >50.0 µM | > 12.5 µM | blockade on oocyst intensity ([4]; 50 mg kg^−1 IP, 30 min before the feed): 99.6%; transmission blocking efficacy at the oocyst level ([4]; 50 mg kg^−1 IP, 24 h before mosquito feeding): no transmission blocking efficacy; suppression of gametocytaemia compared to vehicle-only controls ([4]; 50 mg kg^−1 IP, 24 h exposure): not impacted; effect on asexual parasitaemia ([4]; 50 mg kg^−1 IP, single dose): not impacted; Infection Prevalence (%) [4, 5]: 54.35% and 23.08%; Mean oocysts per mosquito [4, 5]: 1.43 and 0.60; Infection Prevalence (%) ([4]; Dose 24hr prior to feeding): 100%; Mean oocysts per mosquito ([4]; Dose 24hr prior to feeding, listed as DDD881): 330.22 and 190.61; phenotype of male gametogenesis (IFA) [1]: only a few cells replicated their DNA and none exflagellated
10 | Cc1cccc(NC(=O)c2cccc(OCc3nnnn3C)c2)n1 [DDD01038630] | – | – | >50.0 µM | – | –
11 | CC(c1ccco1)N(C(=O)CNc1ccc(C#N)cc1)C1CC1 (centres unmarked) [DDD01062645] | > 25 µM | > 12.5 µM | >50.0 µM | > 12.5 µM | –
12 | Cc1ccc(CN(c2cc(C)nc3nc(C(F)(F)F)nn23)C2CC2)cc1 [DDD01063654] | > 10 µM | – | >50.0 µM | – | –
13 | Cc1cc(C)c(CNCC(O)c2ccc(F)c(F)c2)c(C)c1.Cl (centres unmarked) [DDD01065539] | – | – | – | – | Human HepG2 assay TOX50 (HepG2 cells; 48h incubation): 36.6 µM
14 | CC(NCC1CCN(CCO)CC1)c1ccc(OC(F)(F)F)cc1 (centres unmarked) [DDD01073716] | 7.07 µM | 1.22 µM | >50.0 µM | 1.08 µM | –
15 | CN(Cc1cccc(F)c1)C(=O)CS(=O)(=O)Cc1c(Cl)cccc1Cl [DDD01077188] | – | – | >50.0 µM | – | –
16 | CN1CCC(NCC(O)c2cccc(OCc3ccccc3)c2)CC1 (centres unmarked) [DDD01079164] | 4.97 µM | 1.07 µM | 38.40 µM | 1.3 µM | –
17 | CNc1cc(C)nc(NC2CCCN(C3Cc4ccccc4C3)C2)n1 (centres unmarked) [DDD01243506] | – | – | >50.0 µM | – | HepG2 TOX50 (HepG2 cells; human, 48 h): ≥ 50 µM
18 | CC(c1cccs1)N(C)Cc1cnc(-c2ccccn2)nc1 (centres unmarked) [DDD01246628] | 0.2 µM | – | 11.30 µM | – | –
19 | CCCn1nccc1C(=O)N1CCN(C2CCc3ccccc3C2)CC1 (centres unmarked) [DDD01251134] | – | – | >50.0 µM | – | –
20 | Cc1nn(C)c(Oc2ccc(Cl)cc2)c1CN1CCC(CN)C1 (centres unmarked) [DDD01254274] | > 12.5 µM | > 25 µM | >50.0 µM | 2.84 µM | –
21 | CCc1ccc(C2c3nc[nH]c3CCN2Cc2nccn2CC)nc1 (centres unmarked) [DDD01254473] | 0.08 µM | 0.71 µM | >50.0 µM | 5.74 µM | activity in the mitotracker assay (NF54 stage V gametocytes; profiling): submicromolar
22 | CCOc1ccc2ccccc2c1CNCC1CCNCC1.Cl.Cl [DDD01255740] | 3.57 µM | 1.65 µM | >50.0 µM | 0.67 µM | –
23 | Cc1ccc(-c2cc(C(=O)NCCC3=CCCCC3)[nH]n2)o1 [DDD01255968] | > 25 µM | > 12.5 µM | >50.0 µM | 2.19 µM | phenotype of male gametogenesis (IFA) [1]: did not replicate their DNA and remained with 1n genome copies
24 | CCn1ncc(Br)c1CN(C)S(=O)(=O)c1ccc(C)cc1 [DDD01259521] | > 25 µM | – | >50.0 µM | – | –
25 | c1cnnc(N2CCCC2CNc2ncnc3sccc23)c1 (centres unmarked) [DDD01299704] | – | – | >50.0 µM | – | –
